Test results as given in patent publication US10988451B2, “MCL-1 inhibitors” (Gilead Sciences, Inc., priority 2018, dated 2021).
pEC50, pIC50: −log10 of the molar value. Where two headings read alike, the source gives them in different places.

Tests used:
MCL-1/Bim = MCL-1/Bim (Homo sapiens (Human), UniProt Q07820); assay: MCL-1/Bim Binding AlphaLISA Assay; conditions: 6xHis-Mcl-1 (171-327) and biotinylated Bim peptide (51-76)
Experimental: MCL-1/Bim Binding AlphaLISA Assay.
Inhibition of the MCL-1 and Bim interaction was measured in the following AlphaLISA assay.
Recombinant human MCL-1 protein (C-terminal 6×His Tagged Mcl-1 containing residues 171-327) was generated at Gilead Sciences, Inc. (Foster City, Calif.). A biotinylated peptide derived from human Bim (residues 51-76) was purchased from CPC Scientific (Sunnyvale, Calif.). (CPC 834113). AlphaLISA anti-6His-acceptor beads (AL128R), AlphaScreen Streptavidin donor beads (6760002B), and Proxiplate-384 Plus (6008289) were purchased from PerkinElmer.
The AlphaLISA assay was performed in a 384-well Proxiplate in a total volume of 40 μL. The reaction mixture contained 0.0625 nM 6× His-Mcl-1 (171-327), 0.0625 nM biotinylated-Bim peptide, 10 μg/mL AlphaLISA anti-6×His-AlphaLISA acceptor beads, 40 μg/mL AlphaScreen streptavidin donor beads, and serially diluted test compounds in the binding buffer (20 mM Hepes, pH 7.5 (Teknova H1035); 150 mM NaCl (Promega V4221); 0.002% Brij 35 (Thermo Scientific 20150); 1 mM Dithiothreitol (DTT) Solution (Affymetrix 70726); 0.01% BSA (BioLabs B9000S)). 1,000× test compounds were pre-spotted onto 384-well Proxiplate (Labcyte Echo) by Echo 555 Liquid Handler (Labcyte Inc., San Jose, Calif.) followed by incubation of 5 μl Mcl-1(171-327) for 1 hour. Then 5 μL Bim (51-76) was added and incubated for 2 hours. Five μL AlphaLISA anti-6His-AlphaLISA acceptor beads were then added for 1 hour followed by addition of 5 μL AlphaScreen streptavidin donor beads for 1 hour. The reaction plates were then read on an Envision multimode reader (PerkinElmer) using AlphaScreen settings. […] Percent inhibition was calculated as shown below: % Inhibition=100%*(Well−Neg)/(Pos−Neg) Neg: negative control, DMSO Pos: positive control, no Mcl-1 protein, no biotinylated-Bim peptide

SKBR3 cells = assay: SKBR3 Cell Viability Assay; type: cell-based; conditions: CellTiter Glo, read-out: MCL-1 CV SKBR3 EC50
Experimental: SKBR3 Cell Viability Assay Materials
SKBR3 Cells (ATCC HTB-30) were obtained from ATCC (Manassas, Va.) and cultured in McCoy 5A's medium (ATCC 30-2007)+10% fetal bovine serum (SH30071.03, HyClone, Pittsburgh, Pa.) plus 1× Penicillin-Streptomycin L-glutamine (Corning 30-009-C1, Corning, N.Y.)).
The cell viability assay was conducted in a 384-well tissue culture plate (Grenier 781086, Monroe, N.C.) in a total volume of 70 μL. Test compounds were prepared in 1,000×, serially diluted, and pre-spotted into 384-well tissue culture plate by Echo 555 Liquid Handler (Labcyte Inc., San Jose, Calif.). Seventy μ1 of 6,000 SKBR3 cells were dispensed into each well of the plate and incubated at 37° C. with 5% CO2 for 72 hours. At the end of incubation, 2× CellTiter Glo (CTG) reagents (1 part buffer with 2 parts substrate) (Promega, Madison, Wis.) were prepared, and the plate and the reagent were equilibrated to room temperature for 30 minutes. CTG reagent was added to each plate by Biomek FX at 20 μL/well with 5 times pipetting and mixing to induce cell lysis. Luminescence was read by Envision multimode reader (PerkinElmer). […] Percent inhibition was calculated as followed: % Inhibition=100%*(Well−Neg)/(Pos−Neg) Neg, negative control, DMSO Pos, positive control, 10 μM Puromycin

MCL-1/Bim, sequence (Q07820 171-327): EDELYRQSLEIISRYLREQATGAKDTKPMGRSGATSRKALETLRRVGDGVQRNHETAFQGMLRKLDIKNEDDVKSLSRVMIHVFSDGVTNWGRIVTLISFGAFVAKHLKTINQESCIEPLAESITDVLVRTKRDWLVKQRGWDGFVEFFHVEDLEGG

Row | SMILES | pIC50 (MCL-1/Bim) | pEC50 (SKBR3 cells; Homo sapiens, SK-BR-3, 72 h) | pEC50 (SKBR3 cells; 72 hours)
1 | COC1Cc2cc(C(=O)N[S@@]3(=O)=NC(=O)c4ccc5c(c4)N(C[C@@H]4CC[C@H]4[C@@H](OC)/C=C/C[C@H](C)C3)C[C@@]3(CCCc4cc(Cl)ccc43)CO5)cn2C1 (stereo partly drawn) [Example 205] | 10.12 | 7.23 | 
2 | CO[C@H]1/C=C/C[C@H](C)[C@@H](C)[S@](=O)(NC(=O)CCc2ccnn2C)=NC(=O)c2ccc3c(c2)N(C[C@@H]2CC[C@H]21)C[C@@]1(CCCc2cc(Cl)ccc21)CO3 [Example 50] | 8.85 | 5.48 | 
3 | CC[C@H]1CN2C[C@@]3(CCCc4cc(Cl)ccc43)COc3ccc(cc32)C(=O)N=[S@](=O)(NC(=O)NC(C)C)CCC/C=C/[C@H](OC)[C@@H]1C [Example 19] | 8.96 | 5.96 | 
4 | CO[C@H]1/C=C/CCC[S@@](=O)(NC(=O)NCc2ccc(F)cc2)=NC(=O)c2ccc3c(c2)N(C[C@@H]2CC[C@H]21)C[C@@]1(CCCc2cc(Cl)ccc21)CO3 [Example 37] | 8.85 | 5.79 | 
5 | CO[C@H]1/C=C/C[C@H](C)[C@@H](C)[S@@](=O)(NC(=O)c2cnn(C3COC3)c2)=NC(=O)c2ccc3c(c2)N(C[C@@H]2CC[C@H]21)C[C@@]1(CCCc2cc(Cl)ccc21)CO3 [Example 152] | 10.24 | 7.25 | 
6 | CO[C@H]1/C=C/CCC[S@@](=O)(NC(=O)CCc2ccnn2C)=NC(=O)c2ccc3c(c2)N(C[C@@H]2CC[C@H]21)C[C@@]1(CCCc2cc(Cl)ccc21)CO3 [Example 22] | 10.00 |  | 6.59
7 | CO[C@H]1/C=C/CCCS(=O)(NC(=O)CCc2ccnn2C)=NC(=O)c2ccc3c(c2)N(C[C@@H]2CC[C@H]21)C[C@@]1(CCCc2cc(Cl)ccc21)CO3 (single isomer, unassigned) [Example 48] | 8.43 | 5.07 | 
8 | CC[C@H]1CN2C[C@@]3(CCCc4cc(Cl)ccc43)COc3ccc(cc32)C(=O)N=[S@](=O)(NC(=O)CC(C)C)CCC/C=C/[C@H](OC)[C@@H]1C [Example 26] | 8.74 | 5.77 | 

Now from value to molecule, other results behind:

Row | pIC50 (MCL-1/Bim) | pEC50 (SKBR3 cells; Homo sapiens, SK-BR-3, 72 h) | SMILES | pEC50 (SKBR3 cells; 72 hours)
9 | 9.63 | 7.19 | CO[C@H]1/C=C/C[C@H](C)C[S@@](=O)(NC(=O)c2ccc3c(c2)COCC3)=NC(=O)c2ccc3c(c2)N(C[C@@H]2CC[C@H]21)C[C@@]1(CCCc2cc(Cl)ccc21)CO3 [Example 157] | 
10 | 10.00 | 6.15 | CO[C@H]1/C=C/CCC[S@@](=O)(NC(=O)CCc2ccn(C)n2)=NC(=O)c2ccc3c(c2)N(C[C@@H]2CC[C@H]21)C[C@@]1(CCCc2cc(Cl)ccc21)CO3 [Example 51] | 
11 | 9.30 | 5.69 | CC[C@H]1CN2C[C@@]3(CCCc4cc(Cl)ccc43)COc3ccc(cc32)C(=O)N=[S@](=O)(NC(=O)Cc2cnccn2)CCC/C=C/[C@H](OC)[C@@H]1C [Example 20] | 
12 | 10.36 | 7.10 | CO[C@H]1/C=C/C[C@H](C)C[S@@](=O)(CC(=O)N[C@@H]2CC[C@@H](O)C2)=NC(=O)c2ccc3c(c2)N(C[C@@H]2CC[C@H]21)C[C@@]1(CCCc2cc(Cl)ccc21)CO3 [Example 222] | 
13 | 9.22 | 5.70 | CC[C@H]1CN2C[C@@]3(CCCc4cc(Cl)ccc43)COc3ccc(cc32)C(=O)N=[S@](=O)(NC(C)=O)CCC/C=C/[C@H](OC)[C@@H]1C [Example 25] | 
14 | 10.42 | 7.72 | COc1nn(C)cc1C(=O)N[S@@]1(=O)=NC(=O)c2ccc3c(c2)N(C[C@@H]2CC[C@H]2[C@@H](O)/C=C/C[C@H](C)[C@H]1C)C[C@@]1(CCCc2cc(Cl)ccc21)CO3 [Example 359] | 
15 | 9.97 |  | COc1nn(C)cc1C(=O)N[S@@]1(=O)=NC(=O)c2ccc3c(c2)N(C[C@@H]2CC[C@H]2[C@@H](OC)/C=C/[C@H](OC(=O)CCc2ccccc2)[C@H](C)C1)C[C@@]1(CCCc2cc(Cl)ccc21)CO3 [Example 377] | 7.47
